Reference: patent US20220144853A1, “IMIDAZOLINE DERIVATIVES AS CXCR4 MODULATORS” (Université de Paris, priority 2019, published 2022)
Counter-ions that a name gives are not always drawn.

Test system: IFN production by activated PBMCs
Assay: IFN production by R848-activated PBMCs from healthy donors, twINNE reporter cell line
Format: cell-based, human
Details: Homo sapiens, PBMC, means of two results over 2 healthy donors, R848 5 μg/mL, IT1t: mean over all experiments, read-out: IC50 of anti-inflammatory activity (IFN production)
Method: 2) The blood from healthy donors was also obtained from “Etablissement Français du Sang” (convention #19/EFS/029), Paris, France.
In vitro experiments were performed using human peripheral blood mononuclear cells (PBMCs) isolated by density centrifugation from peripheral blood leukocyte separation medium, lymphoprep (Stemcell Technologies).
PBMCs were cultured in RPMI 1640 (Sigma-Aldrich, MO, USA) containing 10% heat-inactivated fetal bovine serum (Sigma-Aldrich, MO, USA) at 37° C./5% CO2.
2) The PBMCs used herein were prepared as described in part A “immune cells preparation”, section 2) above. PBMCs were seeded at 4.10^6/mL. […] Cells were then stimulated with the TLR7/8 agonist resiquimod—R848 (Sigma-Aldrich, MO, USA) at 5 μg/mL.
2) To quantify the secretion of functional IFN, a biological assay based on a stable cell line where luciferase reporter gene is controlled by five Interferon-Stimulated Response Elements (twINNE cell line) was used. It is important to note that the twINNE cell line is the same as the above mentioned STING-37 cell line but with constitutively expressed nanoluciferase. First, supernatants of R848-stimulated PBMCs (see part B, section 2) above) were harvested after 24 h of stimulation and frozen at −20° C. for storage. Then, supernatants were dispensed in culture wells of a 96-well plate containing 35.103 twINNE cells per well in Dulbecco's Modified Eagle's Medium supplemented with 10% Foetal Bovine Serum, 100 U/mL Penicillin and 100 μg/mL Streptomycin (1% Pen-Strep) and 1 mM glutamine (Sigma-Aldrich, MO, USA) at 37° C./5% […]. After 24 h of culture, luciferase activity was determined by adding 60 μL of Bright-Go reagents (Promega, Wisconsin, USA) to culture wells and measuring bioluminescence with EnSpire Multimode Plate Reader (PerkinElmer, Massachusetts, USA). When stated, for IC50 calculation, dose-response curves fitted using the nonlin fit (variable slope) analysis in GraphPad Prism software (GraphPad Software, California, USA).

Question: With `CC1(C)CN=C(SCCCc2cccnc2)N1` [Example 31, 3-(3-((5,5-dimethyl-4,5-dihydro-1H-imidazol-2-yl)thio)propyl)pyridine dihydrochloride] as the compound, how does the IC50 read?
Answer: The IC50 was no less than 31 µM.

Question: How did the IC50 turn out when `CC1(C)CN=C(SCc2cccnc2)N1` [Example 32, 3-(((5,5-dimethyl-4,5-dihydro-1H-imidazol-2-yl)thio)methyl)pyridine dihydrochloride] was run?
Answer: Its IC50 is no less than 31 µM.

Question: With `CC1(C)CN=C(SCC2=CSC3=NC4(CC4)CN23)N1` [Example 33, dihydrochloride] as the compound, how does the IC50 read?
Answer: The IC50 was no less than 31 µM.

Question: Which IC50 does the source give for `CC1(C)CN=C2SC=C(CSC3=NCC(C)(C)N3)N2C1` [Example 34, 3-(((5,5-dimethyl-4,5-dihydro-1H-imidazol-2-yl)thio)methyl)-6,6-dimethyl-6,7-dihydro-5H-thiazolo[3,2-a]pyrimidine dihydrochloride] here?
Answer: Its IC50 is no less than 31 µM.

Question: How did the IC50 turn out when `C1=C(CSC2=NCCCN2)N2CCN=C2S1` [Example 35, 3-(((1,4,5,6-tetrahydropyrimidin-2-yl)thio)methyl)-5,6-dihydroimidazo[2,1-b]thiazole dihydrochloride] was run?
Answer: The IC50 was no less than 31 µM.

Question: How did the IC50 turn out when `C1=C(CSC2=NCCCN2)N2CCCCN=C2S1` [Example 37, 3-(((1,4,5,6-tetrahydropyrimidin-2-yl)thio)methyl)-5,6,7,8-tetrahydrothiazolo[3,2-a][1,3]diazepine dihydrochloride] was run?
Answer: The IC50 was no less than 31 µM.

Question: How did the IC50 turn out when `CC1(C)CN=C(SCCCn2ccnc2)N1` [Example 38, 1-(3-((5,5-dimethyl-4,5-dihydro-1H-imidazol-2-yl)thio)propyl)-1H-imidazole dihydrochloride] was run?
Answer: The IC50 was no less than 31 µM.

Question: With `CC1(C)CN2C(CSC3=NCC4(CCCCC4)N3)=CSC2=N1` [Example 39, 3-(((1,3-diazaspiro[4.5]dec-2-en-2-yl)thio)methyl)-6,6-dimethyl-5,6-dihydroimidazo[2,1-b]thiazole dihydrochloride] as the compound, how does the IC50 read?
Answer: Its IC50 is 10 to 31 µM.

Question: Which IC50 does the source give for `CC1(C)CN2C(CSC3=NCC4CCCCC4N3)=CSC2=N1` (stereo not shown) [Example 40, 6,6-dimethyl-3-(((1,4,4a,5,6,7,8,8a-octahydroquinazolin-2-yl)thio)methyl)-5,6-dihydroimidazo[2,1-b]thiazole dihydrochloride] here?
Answer: Its IC50 is no less than 31 µM.

Question: With `CC1(C)CN=C(SCCc2cccc3ncccc23)N1` [Example 41, 5-(2-((5,5-dimethyl-4,5-dihydro-1H-imidazol-2-yl)thio)ethyl)quinoline dihydrochloride] as the compound, how does the IC50 read?
Answer: The IC50 was no less than 31 µM.

Question: How did the IC50 turn out when `CC1(C)CN=C(SCC2=CSC3=NC4(CCCCC4)CN23)N1` [Example 42, 3′-(((5,5-dimethyl-4,5-dihydro-1H-imidazol-2-yl)thio)methyl)-5′H-spiro[cyclohexane-1,6′-imidazo[2,1-b]thiazole] dihydrochloride] was run?
Answer: Its IC50 is 10 to 31 µM.

Question: Which IC50 does the source give for `CC1(C)CN=C(SCC2=CSC3=NC4CCCCC4CN23)N1` (stereo not shown) [Example 43, 3-(((5,5-dimethyl-4,5-dihydro-1H-imidazol-2-yl)thio)methyl)-5a,6,7,8,9,9a-hexahydro-5H-thiazolo[2,3-b]quinazoline dihydrochloride] here?
Answer: Its IC50 is 10 to 31 µM.

Question: With `C1=C(CSC2=N[C@@H]3CCCC[C@H]3N2)N2CCN=C2S1` [Example 44, 3-((((3aR,7aR)-3a,4,5,6,7,7a-hexahydro-1H-benzo[d]imidazol-2-yl)thio)methyl)-5,6-dihydroimidazo[2,1-b]thiazole dihydrochloride] as the compound, how does the IC50 read?
Answer: Its IC50 is no more than 10 µM.

Question: Which IC50 does the source give for `C1=C(CSC2=N[C@@H]3CCCC[C@H]3N2)N2CCCN=C2S1` [Example 45, 3-((((3aR,7aR)-3a,4,5,6,7,7a-hexahydro-1H-benzo[d]imidazol-2-yl)thio)methyl)-6,7-dihydro-5H-thiazolo[3,2-a]pyrimidine dihydrochloride] here?
Answer: Its IC50 is no less than 31 µM.

Question: `C1=C(CSC2=N[C@@H]3CCCC[C@H]3N2)N2CCCCN=C2S1` [Example 46, 3-((((3aR,7aR)-3a,4,5,6,7,7a-hexahydro-1H-benzo[d]imidazol-2-yl)thio)methyl)-5,6,7,8-tetrahydrothiazolo[3,2-a][1,3]diazepine dihydrochloride] was tested. Which IC50 did it give?
Answer: The IC50 was no less than 31 µM.

Question: `CC1(C)CN=C(SCCn2ccnc2)N1` [Example 47, 1-(2-((5,5-dimethyl-4,5-dihydro-1H-imidazol-2-yl)thio)ethyl)-1H-imidazole dihydrochloride] was tested. Which IC50 did it give?
Answer: Its IC50 is no less than 31 µM.
